The source of these data is the supplement of paper PMC10702517.

A short description of series [1]: chemical recovery from spiked human plasma; higher = better extraction. Conditions: pooled human plasma.
Series [2] can be described thus: chemical recovery by SPE of plasma after PDMS sampling; higher = better extraction. Conditions: pooled human plasma, extraction method: HLB SPE of plasma after PES.
The mark [3] stands for this setting: extraction method: PES+SPE (3 d PDMS equilibration then HLB SPE).
Setting [4] is: extraction method: SPE only (HLB 96-well).
Where [5] appears, read: extraction method: SPE only (HLB 96-well), PES comparison experiment.
Setting [6] is: extraction method: solvent precipitation (ACN + hexane).

± gives the standard deviation.
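Throughout, for chemical recovery by SPE of plasma after PDMS sampling: over 400 spiked chemicals quantified by LC-HRMS or GC-HRMS via internal standard calibration, recovery relative to spike mix added to unspiked plasma extract to correct matrix effects.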

Turning to `O=c1c(-c2ccc(O)cc2)coc2cc(O)cc(O)c12` [Genistein], the chemical recovery turned out to be 55.5 ± 1.2% in series [1] (setting [3]), 49.1 ± 3.9% in series [1] (setting [4]), 46.4 ± 4% in series [1] (setting [5]) and 48.3 ± 10% in series [1] (setting [6]). Moreover, the entries for the “chemical recovery by SPE of plasma” value in series [2] (equilibration time (d): 1), in series [2] (equilibration time (d): 3) and in series [2] (equilibration time (d): 6) were 46.2 ± 7.8%, 50 ± 4.5% and 47 ± 3.7%, respectively.
In the case of `COc1ccc(Cl)cc1C(=O)NCCc1ccc(S(=O)(=O)NC(=O)NC2CCCCC2)cc1` [Glibenclamide], the chemical recovery in series [1] (setting [5]) is 42.1 ± 7%; in series [1] (setting [6]), 74.9 ± 2.6%. Besides, the “chemical recovery by SPE of plasma” value in series [2] (equilibration time (d): 3) is 43.4 ± 2.1%; in series [2] (equilibration time (d): 6), 38 ± 3.8%.
As to `CCC1=C(C)CN(C(=O)NCCc2ccc(S(=O)(=O)NC(=O)NC3CCC(C)CC3)cc2)C1=O` (stereo not given) [Glimepiride], the chemical recovery stood at 36.8 ± 4.8% in series [1] (setting [3]), 32 ± 1.9% in series [1] (setting [4]), 42.6 ± 4.8% in series [1] (setting [5]) and 71.4 ± 5.3% in series [1] (setting [6]). In addition, the “chemical recovery by SPE of plasma” value in series [2] (equilibration time (d): 1) amounted to 46.6 ± 3.4%; in series [2] (equilibration time (d): 3), 45.2 ± 1.8%; in series [2] (equilibration time (d): 6) it was 42.1 ± 3%.
In turn, `NC(=O)N=C(N)N` [Guanylurea] had a chemical recovery in series [1] (setting [5]) of 1.06 ± 1.4%. Moreover, the “chemical recovery by SPE of plasma” value in series [2] (equilibration time (d): 1) amounted to 0.503 ± 1.2%; in series [2] (equilibration time (d): 3), 0.581 ± 0.1%; in series [2] (equilibration time (d): 6) it was 0.912 ± 0.18%.
As for `COc1ccc2c(c1)c(CC(=O)O)c(C)n2C(=O)c1ccc(Cl)cc1` [Indometacin], the values for the chemical recovery in series [1] (setting [3]), in series [1] (setting [4]) and in series [1] (setting [5]) were 33.6 ± 5.2%, 33.3 ± 1.8% and 31 ± 6%, respectively. Further, the “chemical recovery by SPE of plasma” value in series [2] (equilibration time (d): 3) worked out at 41.1 ± 4.4%; in series [2] (equilibration time (d): 6), 35.8 ± 3.6%.
On to `CC(C(=O)O)c1cccc(C(=O)c2ccccc2)c1` (stereo not given) [Ketoprofen], for which the chemical recovery stood at 56.1 ± 6% in series [1] (setting [3]), 46.1 ± 2.4% in series [1] (setting [4]), 53.1 ± 4.2% in series [1] (setting [5]) and 68.4 ± 3.2% in series [1] (setting [6]). The “chemical recovery by SPE of plasma” value in series [2] (equilibration time (d): 1) amounted to 47.5 ± 5.5%; in series [2] (equilibration time (d): 3) it was 54 ± 2.6%; in series [2] (equilibration time (d): 6) it was 48.2 ± 2.2%.
Regarding `CC(CCc1ccccc1)NCC(O)c1ccc(O)c(C(N)=O)c1` (stereo not given) [Labetalol], the chemical recovery came out at 47.4 ± 3.7% in series [1] (setting [3]), 55.6 ± 8.6% in series [1] (setting [4]), 51.3 ± 4.4% in series [1] (setting [5]) and 70.5 ± 3.8% in series [1] (setting [6]). In addition, the “chemical recovery by SPE of plasma” value in series [2] (equilibration time (d): 1) stood at 46.4 ± 3.9%; in series [2] (equilibration time (d): 3), 50.6 ± 3.4%; in series [2] (equilibration time (d): 6), 44.8 ± 2.3%.
For the compound `CN(C)C(=O)C(CCN1CCC(O)(c2ccc(Cl)cc2)CC1)(c1ccccc1)c1ccccc1` [Loperamide], the figures for the chemical recovery in series [1] (setting [5]) and in series [1] (setting [6]) were 50.8 ± 7.4% and 73.1 ± 3.5%, respectively. For the same compound, the “chemical recovery by SPE of plasma” value in series [2] (equilibration time (d): 1) was determined as 3.98 ± 0.26%; in series [2] (equilibration time (d): 3), 3.93 ± 0.72%; in series [2] (equilibration time (d): 6) it was 2.64 ± 0.097%.
For `CCCCc1nc(Cl)c(CO)n1Cc1ccc(-c2ccccc2-c2nnn[nH]2)cc1` [Losartan], the chemical recovery stood at 44.5 ± 4.3% in series [1] (setting [3]), 41.2 ± 2.9% in series [1] (setting [4]), 40.8 ± 7.5% in series [1] (setting [5]) and 77.2 ± 3.6% in series [1] (setting [6]). The “chemical recovery by SPE of plasma” value in series [2] (equilibration time (d): 1) is 44.8 ± 3.8%; in series [2] (equilibration time (d): 3), 50.8 ± 2.6%; in series [2] (equilibration time (d): 6) it was 46.7 ± 1.6%.
In the case of `CCN(CCCCOC(=O)c1ccc(OC)c(OC)c1)C(C)Cc1ccc(OC)cc1` (stereo not given) [Mebeverine], the chemical recovery in series [1] (setting [5]) was 38.1 ± 4.5%; in series [1] (setting [6]), 69.6 ± 4.1%. Further, the “chemical recovery by SPE of plasma” value in series [2] (equilibration time (d): 1) worked out at 0.287 ± 0.15%; in series [2] (equilibration time (d): 3), 0.295 ± 0.096%; in series [2] (equilibration time (d): 6), 0.145 ± 0.0059%.
As for `Cc1cccc(Nc2ccccc2C(=O)O)c1C` [Mefenamic acid], the chemical recovery in series [1] (setting [3]) amounted to 60.9 ± 5.4%; in series [1] (setting [4]), 45 ± 7.8%; in series [1] (setting [5]), 15.7 ± 2.9%; in series [1] (setting [6]), 54.2 ± 2.1%. Moreover, the “chemical recovery by SPE of plasma” value is 14.9 ± 5% in series [2] (equilibration time (d): 1), 16.4 ± 0.37% in series [2] (equilibration time (d): 3) and 14.5 ± 3% in series [2] (equilibration time (d): 6).
`Cc1cccc(C(=O)O)c1N(Cn1cccn1)C(=O)C(=O)O` [Metazachlor BH479-12] returned a chemical recovery in series [1] (setting [5]) of 37.9 ± 3.8%. For the same compound, the “chemical recovery by SPE of plasma” value in series [2] (equilibration time (d): 1) was found to be 42 ± 6%; in series [2] (equilibration time (d): 3), 49.95 ± 0.36%; in series [2] (equilibration time (d): 6), 46.4 ± 4.8%.
As to `Cc1cccc(C)c1N(Cn1cccn1)C(=O)C[S+]([O-])CC(=O)O` (stereo not given) [Metazachlor BH 479-9], the chemical recovery was determined as 48.2 ± 5.2% in series [1] (setting [4]), 47.4 ± 4.1% in series [1] (setting [5]) and 81 ± 4.5% in series [1] (setting [6]). The results for the “chemical recovery by SPE of plasma” value in series [2] (equilibration time (d): 1), in series [2] (equilibration time (d): 3) and in series [2] (equilibration time (d): 6) were 54.5 ± 12%, 57.9 ± 5% and 54.7 ± 7.3%, respectively.
